Reference: the supplement of paper PMC10307832

Tests used:
Assay in all cases: relative viability (nuclei count vs DMSO), 5 days (fraction); higher = more cells survive
Gemcitabine + Phenformin = compound: Nc1ccn([C@@H]2O[C@H](CO)[C@@H](O)C2(F)F)c(=O)n1 [Gemcitabine] + N=C(N)NC(=N)NCCc1ccccc1 [Phenformin] (partner 250 µM)
Outline: (§1)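 Lung cancer cell lines in 1536-well plates were dosed by pin tool the day after seeding, either with one drug alone or with a fixed anchor-drug dose plus five library-drug doses (not always all listed) in √10 steps. After 5 days, cells were fixed and their nuclei stained in one step (final 0.05% Triton X-100, 1% formaldehyde, 1 ug/ml Hoechst), then counted on 4× images. Relative viability is the nuclei count in treated wells divided by that in vehicle wells. Values are medians of duplicate plates.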

Gemcitabine + Trametinib = compound: Nc1ccn([C@@H]2O[C@H](CO)[C@@H](O)C2(F)F)c(=O)n1 [Gemcitabine] + CC(=O)Nc1cccc(-n2c(=O)n(C3CC3)c(=O)c3c(Nc4ccc(I)cc4F)n(C)c(=O)c(C)c32)c1 [Trametinib] (partner 0.02 µM)
Outline: as §1

Gemcitabine + OSI-027 = compound: Nc1ccn([C@@H]2O[C@H](CO)[C@@H](O)C2(F)F)c(=O)n1 [Gemcitabine] + COc1cccc2cc(-c3nc([C@H]4CC[C@H](C(=O)O)CC4)n4ncnc(N)c34)[nH]c12 [OSI-027] (partner 0.5 µM)
Outline: as §1

Gemcitabine = compound: Nc1ccn([C@@H]2O[C@H](CO)[C@@H](O)C2(F)F)c(=O)n1 [Gemcitabine]
Outline: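 For viability, nuclei in each treated well were divided by nuclei in vehicle wells and the median across plates was taken. Lung cancer cell lines in 1536-well plates were pinned with five library-drug doses (not always all listed) spaced by √10, cultured 5 days without medium change, and imaged at 4× after Hoechst staining, with plates passing only at control CV below 25% and at least one doubling.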

Cell Line	relative viability (Gemcitabine + Phenformin; first compound 0.001 µM)	relative viability (Gemcitabine + Phenformin; first compound 0.003162 µM)	relative viability (Gemcitabine + Phenformin; first compound 0.01 µM)	relative viability (Gemcitabine + Phenformin; first compound 0.03162 µM)	relative viability (Gemcitabine + Phenformin; first compound 0.1 µM)	relative viability (Gemcitabine + Trametinib; first compound 0.001 µM)	relative viability (Gemcitabine + Trametinib; first compound 0.003162 µM)	relative viability (Gemcitabine + Trametinib; first compound 0.01 µM)	relative viability (Gemcitabine + Trametinib; first compound 0.03162 µM)	relative viability (Gemcitabine + Trametinib; first compound 0.1 µM)	relative viability (Gemcitabine + OSI-027; first compound 0.001 µM)	relative viability (Gemcitabine + OSI-027; first compound 0.003162 µM)	relative viability (Gemcitabine + OSI-027; first compound 0.01 µM)	relative viability (Gemcitabine + OSI-027; first compound 0.03162 µM)	relative viability (Gemcitabine + OSI-027; first compound 0.1 µM)	relative viability (Gemcitabine; 0.001 µM)	relative viability (Gemcitabine; 0.003162 µM)	relative viability (Gemcitabine; 0.01 µM)	relative viability (Gemcitabine; 0.03162 µM)	relative viability (Gemcitabine; 0.1 µM)
NCI-H441	0.808	0.552	0.269	0.204	0.176	0.46	0.318	0.196	0.131	0.132	0.583	0.28	0.247	0.165	0.201	0.993	0.63	0.292	0.13	0.139
NCI-H460	0.589	0.565	0.0724	0.0156	0.0098	0.105	0.211	0.0498	0.0169	0.0076	0.838	0.76	0.26	0.0217	0.0185	1.03	0.963	0.774	0.0431	0.0112
NCI-H520	0.536	0.554	0.225	0.163	0.154	0.848	0.752	0.159	0.143	0.144	0.306	0.296	0.254	0.189	0.156	1.05	0.942	0.43	0.22	0.165
NCI-H596	0.74	0.612	0.489	0.262	0.306	0.918	0.593	0.392	0.336	0.321	0.659	0.604	0.392	0.232	0.193	1.32	0.929	0.564	0.31	0.283
NCI-H647	0.334	0.144	0.058	0.0604	0.0397	0.404	0.286	0.117	0.0909	0.0535	0.408	0.128	0.0727	0.0897	0.0704	0.786	0.202	0.0889	0.0675	0.0582
NCI-H650	0.387	0.255	0.202	0.158	0.168	0.809	0.469	0.126	0.141	0.129	0.46	0.24	0.194	0.153	0.169	0.878	0.316	0.195	0.157	0.165
NCI-H661	0.282	0.263	0.231	0.197	0.226	0.568	0.606	0.464	0.281	0.223	0.767	0.597	0.374	0.204	0.208	1.05	0.941	0.808	0.305	0.259
NCI-H727	0.46	0.448	0.348	0.419	0.322	0.447	0.355	0.33	0.327	0.328	0.586	0.409	0.353	0.327	0.297	0.802	0.567	0.347	0.332	0.32
NCI-H838	0.634	0.675	0.521	0.19	0.0985	0.51	0.621	0.561	0.274	0.127	0.367	0.441	0.3	0.245	0.124	0.987	1.15	1.05	0.467	0.153
NCI-H1355	0.444	0.297	0.214	0.202	0.178	0.426	0.363	0.245	0.189	0.154	0.362	0.28	0.159	0.178	0.173	0.987	0.818	0.392	0.187	0.152
NCI-H1395	0.403	0.417	0.321	0.315	0.318	1.01	0.841	0.554	0.424	0.359	0.705	0.493	0.391	0.313	0.303	0.779	0.594	0.422	0.365	0.364
NCI-H1437	0.313	0.213	0.193	0.17	0.112	0.523	0.611	0.384	0.241	0.164	0.822	0.734	0.452	0.297	0.181	1.01	0.854	0.705	0.362	0.21
NCI-H1650	0.437	0.202	0.154	0.129	0.121	0.556	0.337	0.208	0.174	0.137	0.501	0.184	0.114	0.137	0.134	1.04	0.572	0.271	0.154	0.163
NCI-H1651	0.392	0.359	0.335	0.151	0.155	0.828	0.813	0.826	0.185	0.114	0.607	0.75	0.557	0.248	0.117	0.987	0.955	0.929	0.285	0.141
NCI-H1666	0.559	0.476	0.383	0.378	0.355	0.795	0.946	0.773	0.655	0.554	0.87	0.821	0.752	0.5	0.479	0.965	1	0.909	0.61	0.412
NCI-H1734	0.337	0.29	0.163	0.0972	0.106	0.705	0.44	0.193	0.135	0.1	0.506	0.343	0.166	0.121	0.111	0.984	0.856	0.263	0.121	0.125

Cell Line	relative viability (Gemcitabine + Phenformin; first compound 0.001 µM)	relative viability (Gemcitabine + Phenformin; first compound 0.003162 µM)	relative viability (Gemcitabine + Phenformin; first compound 0.01 µM)	relative viability (Gemcitabine + Phenformin; first compound 0.03162 µM)	relative viability (Gemcitabine + Phenformin; first compound 0.1 µM)	relative viability (Gemcitabine + Trametinib; first compound 0.001 µM)	relative viability (Gemcitabine + Trametinib; first compound 0.003162 µM)	relative viability (Gemcitabine + Trametinib; first compound 0.01 µM)	relative viability (Gemcitabine + Trametinib; first compound 0.03162 µM)	relative viability (Gemcitabine + Trametinib; first compound 0.1 µM)	relative viability (Gemcitabine + OSI-027; first compound 0.001 µM)	relative viability (Gemcitabine + OSI-027; first compound 0.003162 µM)	relative viability (Gemcitabine + OSI-027; first compound 0.01 µM)	relative viability (Gemcitabine + OSI-027; first compound 0.03162 µM)	relative viability (Gemcitabine + OSI-027; first compound 0.1 µM)	relative viability (Gemcitabine; 0.001 µM)	relative viability (Gemcitabine; 0.003162 µM)	relative viability (Gemcitabine; 0.01 µM)	relative viability (Gemcitabine; 0.03162 µM)	relative viability (Gemcitabine; 0.1 µM)
NCI-H1755	0.582	0.651	0.482	0.4	0.336	0.759	0.749	0.736	0.616	0.328	0.789	0.715	0.57	0.34	0.272	0.97	1	0.943	0.633	0.305
NCI-H1792	0.291	0.104	0.0944	0.119	0.0679	0.414	0.183	0.0715	0.0564	0.0677	0.639	0.486	0.285	0.227	0.154	1.06	0.43	0.165	0.127	0.0999
NCI-H1793	0.38	0.324	0.223	0.166	0.13	0.385	0.45	0.256	0.187	0.15	0.236	0.286	0.205	0.159	0.116	1.02	1.04	0.565	0.168	0.146
NCI-H1915	0.353	0.356	0.344	0.279	0.214	0.317	0.308	0.286	0.281	0.188	0.714	0.63	0.545	0.479	0.241	0.981	1.03	0.98	0.865	0.475
NCI-H1944	0.225	0.193	0.169	0.161	0.132	0.418	0.416	0.364	0.28	0.154	0.453	0.437	0.385	0.188	0.149	1	0.995	0.821	0.496	0.235
NCI-H1975	0.416	0.268	0.176	0.129	0.122	0.305	0.447	0.367	0.124	0.135	0.867	0.839	0.327	0.148	0.125	0.984	1.1	0.648	0.216	0.174
NCI-H1993	0.461	0.485	0.439	0.421	0.407	0.508	0.457	0.503	0.351	0.438	0.539	0.534	0.541	0.503	0.518	0.974	0.958	0.604	0.441	0.558
NCI-H2009	0.496	0.317	0.198	0.175	0.146	0.268	0.327	0.16	0.115	0.088	0.566	0.303	0.167	0.133	0.111	1.01	0.746	0.24	0.167	0.114
NCI-H2023	0.35	0.327	0.192	0.0945	0.0668	0.567	0.577	0.266	0.152	0.0796	0.417	0.342	0.128	0.0817	0.0589	1.03	0.92	0.444	0.103	0.0642
NCI-H2085	0.79	0.61	0.422	0.282	0.271	0.512	0.589	0.472	0.174	0.226	0.896	0.75	0.479	0.414	0.189	1.05	0.954	0.852	0.792	0.439
NCI-H2087	0.455	0.231	0.149	0.108	0.113	0.191	0.204	0.141	0.121	0.0794	0.532	0.229	0.112	0.0781	0.0817	1.04	0.852	0.349	0.132	0.118
NCI-H2126	0.504	0.422	0.399	0.358	0.216	0.59	0.57	0.514	0.418	0.305	0.733	0.596	0.609	0.447	0.279	0.971	1	0.906	0.77	0.458
NCI-H2170	0.426	0.424	0.363	0.196	0.144	1.02	0.907	0.785	0.167	0.109	0.714	0.662	0.632	0.292	0.136	0.99	0.999	0.86	0.498	0.158
NCI-H2228	0.304	0.168	0.126	0.111	0.0895	0.587	0.248	0.156	0.0861	0.111	0.614	0.24	0.129	0.122	0.0908	0.973	0.695	0.235	0.161	0.132
NCI-H2342	0.477	0.426	0.539	0.281	0.315	0.862	0.904	0.561	0.545	0.311	0.652	0.629	0.563	0.392	0.381	0.922	0.972	0.777	0.438	0.305
